The text below walks through data of US12077503B2, “Substituted cyclic amides and their use as herbicides” (FMC CORPORATION, priority 2015, dated 2024).

The structures appear in SMILES notation. Like-named read-outs stand apart in the source and are kept apart here.

Common to all, as to type: in vivo
The subject of assay [1] is Kochia (Kochia scoparia). The assay is described as follows: Test A preemergence. The settings on record: Bassia scoparia, pre-emergence, 240 h; for pest or weed control at 500 g/ha: 500 g ai/ha; for pest or weed control at 125 g/ha: 125 g ai/ha. The method in brief: (§1)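 In a loam soil and sand blend, planted seeds got a preemergence directed soil spray, and young plants at the one- to two-leaf stage, 2–10 cm high, got a postemergence application; ~10 d greenhouse hold; injury rated visually, 0 = none, 100 = complete control.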

Assay [2] has as its system giant foxtail (Setaria faberii). The assay is described as follows: Test A preemergence. The settings on record: Setaria faberi, pre-emergence, 240 h; for pest or weed control at 500 g/ha: 500 g ai/ha; for pest or weed control at 125 g/ha: 125 g ai/ha. The method in brief:
as §1

Assay [3] concerns barnyardgrass (Echinochloa crus-galli). Put plainly: Test A preemergence. The settings on record: Echinochloa crus-galli, pre-emergence, 240 h; for pest or weed control at 500 g/ha: 500 g ai/ha; for pest or weed control at 125 g/ha: 125 g ai/ha. The method in brief:
as §1

In assay [4] the test system is ryegrass, Italian (Italian ryegrass, Lolium multiflorum). Put plainly: Test A preemergence. The settings on record: Lolium multiflorum, pre-emergence, 240 h; for pest or weed control at 500 g/ha: 500 g ai/ha; for pest or weed control at 125 g/ha: 125 g ai/ha. The method in brief: as §1
Assay [5] concerns pigweed (Amaranthus retroflexus). Put plainly: Test A preemergence. The settings on record: Amaranthus retroflexus, pre-emergence, 240 h; for pest or weed control at 500 g/ha: 500 g ai/ha; for pest or weed control at 125 g/ha: 125 g ai/ha.
Assay [6] concerns ragweed (common ragweed, Ambrosia elatior). Put plainly: Test A preemergence. The settings on record: Ambrosia artemisiifolia, pre-emergence, 240 h; for pest or weed control at 500 g/ha: 500 g ai/ha; for pest or weed control at 125 g/ha: 125 g ai/ha. The method in brief:
as §1

For assay [7], the system named is barnyardgrass (Echinochloa crus-galli). Put plainly: Test B flooded paddy test. The settings on record: Echinochloa crus-galli, Flood, 250 g ai/ha. The method in brief: (§2)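 Flooding to 3 cm over soil accompanied treatment, which consisted of adding compound to the standing water around 2-leaf plants; depth was then maintained. Visual assessment versus controls followed at 13 to 15 d (scale 0–100, 0 meaning no effect).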

The test system of assay [8] is rice (Oryra sativa). Put plainly: Test B flooded paddy test. The settings on record: Oryza sativa, Flood, 250 g ai/ha. The method in brief: as §2
In assay [9] the test system is ducksalad (Heteranthera limosa). Put plainly: Test B flooded paddy test. The settings on record: Heteranthera limosa, Flood, 250 g ai/ha. The method in brief: as §2
In assay [10] the test system is sedge, umbrella (small-flower umbrella sedge, Cyperus difformis). The assay is described as follows: Test B flooded paddy test. The settings on record: Cyperus difformis, Flood, 250 g ai/ha. The method in brief: as §2
Assay [11] has as its system giant foxtail (Setaria faberii). Put plainly: Test A postemergence. The settings on record: Setaria faberi, post-emergence, 240 h, read-out: Plant response rating, Foxtail, Giant; for pest or weed control at 125 g/ha: 125 g ai/ha. The method in brief: as §1
Assay [12] relates to barnyardgrass (Echinochloa crus-galli). The assay is described as follows: Test A postemergence. The settings on record: Echinochloa crus-galli, post-emergence, 240 h, read-out: Plant response rating, Barnyardgrass; for pest or weed control at 125 g/ha: 125 g ai/ha. The method in brief: as §1
For assay [13], the system named is ryegrass, Italian (Italian ryegrass, Lolium multiflorum). Put plainly: Test A postemergence. The settings on record: Lolium multiflorum, post-emergence, 240 h, read-out: Plant response rating, Ryegrass, Italian; for pest or weed control at 125 g/ha: 125 g ai/ha. The method in brief: as §1
The subject of assay [14] is pigweed (Amaranthus retroflexus). Put plainly: Test A postemergence. The settings on record: Amaranthus retroflexus, post-emergence, 240 h, read-out: Plant response rating, Pigweed; for pest or weed control at 125 g/ha: 125 g ai/ha. The method in brief: as §1
Setting [15] is: Postemergence, visual injury after approx. 10 d, 0 to 100 scale, 0 no effect, 100 complete control.
[16] abbreviates: Postemergence, 500 g ai/ha, visual injury, 0 to 100 scale (0 no effect, 100 complete control), approx. 10 d.
[17] abbreviates: postemergence, visual injury after approximately 10 d, 0 to 100 scale (0 no effect, 100 complete control).

For the compound `Cc1c(F)cccc1NC(=O)[C@H]1C(=O)N(C)C[C@@H]1c1ccc(C(F)(F)F)cc1` [Compound 1386], the pest or weed control at 500 g/ha in [1] (preemergence, 0 to 100 scale (0 no effect, 100 complete control), read-out: Plant response rating, Kochia) was determined as 90%; in [2] (preemergence, 0 to 100 scale (0 no effect, 100 complete control), read-out: Plant response rating, Foxtail, Giant) it was 90%; in [3] (preemergence, 0 to 100 scale (0 no effect, 100 complete control), read-out: Plant response rating, Barnyardgrass), 100%; in [4] (preemergence, 0 to 100 scale (0 no effect, 100 complete control), read-out: Plant response rating, Ryegrass, Italian), 70%; in assay [5] (preemergence, 0 to 100 scale (0 no effect, 100 complete control), read-out: Plant response rating, Pigweed) it was 90%; in assay [6] (preemergence, 0 to 100 scale (0 no effect, 100 complete control), read-out: Plant response rating, Ragweed), 80%. In addition, the pest or weed control at 500 g/ha stood at 90% in assay [11] (setting [16]), 90% in [12] (setting [16]), 60% in [13] (setting [16]) and 70% in assay [14] (setting [16]). For the same compound, the pest or weed control at 125 g/ha amounted to 80% in assay [1] (Preemergence, 0 to 100 scale (0 no effect, 100 complete control), read-out: Plant response rating, Kochia); 90% in [2] (Preemergence, 0 to 100 scale (0 no effect, 100 complete control), read-out: Plant response rating, Foxtail, Giant); 90% in assay [3] (Preemergence, 0 to 100 scale (0 no effect, 100 complete control), read-out: Plant response rating, Barnyardgrass); 50% in [4] (Preemergence, 0 to 100 scale (0 no effect, 100 complete control), read-out: Plant response rating, Ryegrass, Italian); 80% in assay [5] (Preemergence, 0 to 100 scale (0 no effect, 100 complete control), read-out: Plant response rating, Pigweed); 60% in assay [6] (Preemergence, 0 to 100 scale (0 no effect, 100 complete control), read-out: Plant response rating, Ragweed). In addition, the pest or weed control at 125 g/ha stood at 90% in [11] (setting [15]), 90% in assay [12] (setting [15]), 40% in assay [13] (setting [15]) and 40% in assay [14] (setting [15]). Also, the pest or weed control at 250 g/ha amounted to 55% in [7] (360 h, visually evaluated after 13 to 15 d, read-out: Plant response rating, Barnyardgrass (0 to 100 scale where 0 is no effect and 100 is complete control)); 0% in [8] (360 h, visually evaluated after 13 to 15 d, read-out: Plant response rating, Rice (0 to 100 scale where 0 is no effect and 100 is complete control)); 100% in assay [9] (360 h, visually evaluated after 13 to 15 d, read-out: Plant response rating, Ducksalad (0 to 100 scale where 0 is no effect and 100 is complete control)); 0% in [10] (360 h, visually evaluated after 13 to 15 d, read-out: Plant response rating, Sedge, Umbrella (0 to 100 scale where 0 is no effect and 100 is complete control)).
For the compound `Cc1cc([C@H]2CNC(=O)[C@@H]2C(=O)Nc2cccc(F)c2F)ccc1Cl` [Compound 790], the pest or weed control at 125 g/ha in [1] (preemergence, visual rating after approx. 10 d, 0 to 100 scale where 0 is no effect and 100 is complete control, read-out: Plant response rating, Kochia) amounted to 70%; in assay [2] (preemergence, visual rating after approx. 10 d, 0 to 100 scale where 0 is no effect and 100 is complete control, read-out: Plant response rating, Foxtail, Giant) it was 70%; in [3] (preemergence, visual rating after approx. 10 d, 0 to 100 scale where 0 is no effect and 100 is complete control, read-out: Plant response rating, Barnyardgrass) it was 90%; in assay [4] (preemergence, visual rating after approx. 10 d, 0 to 100 scale where 0 is no effect and 100 is complete control, read-out: Plant response rating, Ryegrass, Italian), 30%; in [5] (preemergence, visual rating after approx. 10 d, 0 to 100 scale where 0 is no effect and 100 is complete control, read-out: Plant response rating, Pigweed), 0%; in [6] (preemergence, visual rating after approx. 10 d, 0 to 100 scale where 0 is no effect and 100 is complete control, read-out: Plant response rating, Ragweed), 20%. For the same compound, the pest or weed control at 125 g/ha in assay [11] (setting [17]) stood at 50%; in [12] (setting [17]) it was 80%; in assay [13] (setting [17]) it was 0%; in assay [14] (setting [17]), 20%. In addition, the pest or weed control at 500 g/ha in [1] (Preemergence, visual injury vs untreated controls after approximately 10 d, read-out: Kochia plant response rating (0 to 100 scale where 0 is no effect and 100 is complete control)) worked out at 80%; in assay [2] (Preemergence, visual injury vs untreated controls after approximately 10 d, read-out: Foxtail, Giant plant response rating (0 to 100 scale where 0 is no effect and 100 is complete control)), 90%; in assay [3] (Preemergence, visual injury vs untreated controls after approximately 10 d, read-out: Barnyardgrass plant response rating (0 to 100 scale where 0 is no effect and 100 is complete control)), 90%; in [4] (Preemergence, visual injury vs untreated controls after approximately 10 d, read-out: Ryegrass, Italian plant response rating (0 to 100 scale where 0 is no effect and 100 is complete control)), 70%; in assay [5] (Preemergence, visual injury vs untreated controls after approximately 10 d, read-out: Pigweed plant response rating (0 to 100 scale where 0 is no effect and 100 is complete control)), 40%; in [6] (Preemergence, visual injury vs untreated controls after approximately 10 d, read-out: Ragweed plant response rating (0 to 100 scale where 0 is no effect and 100 is complete control)), 60%. Also, the pest or weed control at 250 g/ha stood at 40% in assay [7] (scale of 0 to 100 where 0 is no effect and 100 is complete control, read-out: Barnyardgrass plant response rating); 0% in [8] (scale of 0 to 100 where 0 is no effect and 100 is complete control, read-out: Rice plant response rating); 100% in assay [9] (scale of 0 to 100 where 0 is no effect and 100 is complete control, read-out: Ducksalad plant response rating); 0% in assay [10] (scale of 0 to 100 where 0 is no effect and 100 is complete control, read-out: Sedge, Umbrella plant response rating).
